Values quoted from earlier work as cited in US20030096831A1, “Ocular growth and nicotinic antagonists” (priority 2000, published 2003).
Entries after “also recorded” stand apart in the source; their conditions may differ.

Legend:
[1] = target: human muscle nicotinic receptors (Homo sapiens, UniProt P02708+P07510+Q07001); settings: cited from earlier work
[2] = system: nicotinic receptors mediating dopamine release from rat synaptosomal preparations; settings: cited from earlier work
[3] = system: putative α3β4-containing receptor; settings: cited from earlier work
[4] = system: nicotinic receptors in preparations of rat thalamus; settings: cited from earlier work
accommodation = settings: nicotine intravitreal and subconjunctival; vecuronium bromide applied to corneas; cited from earlier work
development of myopia = settings: chick, tree shrew, monkey and human; cited from earlier work
chick eye refraction = settings: cited from earlier work
[5] = system: ocular elongation following spectacle-induced hyperopic defocus; settings: applied to chick corneas; cited from earlier work

Chain of human muscle nicotinic receptors (P02708 21-457): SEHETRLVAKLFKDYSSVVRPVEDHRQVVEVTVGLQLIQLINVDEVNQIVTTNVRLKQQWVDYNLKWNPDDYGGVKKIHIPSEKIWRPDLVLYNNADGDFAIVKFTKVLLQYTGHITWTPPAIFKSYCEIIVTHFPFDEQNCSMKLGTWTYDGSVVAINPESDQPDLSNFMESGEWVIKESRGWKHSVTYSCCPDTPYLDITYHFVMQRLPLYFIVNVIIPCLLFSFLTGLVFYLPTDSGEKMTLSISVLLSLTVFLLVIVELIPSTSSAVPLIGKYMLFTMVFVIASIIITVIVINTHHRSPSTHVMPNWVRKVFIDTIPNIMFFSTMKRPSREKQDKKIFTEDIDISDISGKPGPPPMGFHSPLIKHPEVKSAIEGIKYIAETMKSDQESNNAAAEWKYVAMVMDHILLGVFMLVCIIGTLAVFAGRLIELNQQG
Chain of human muscle nicotinic receptors (Q07001 22-517): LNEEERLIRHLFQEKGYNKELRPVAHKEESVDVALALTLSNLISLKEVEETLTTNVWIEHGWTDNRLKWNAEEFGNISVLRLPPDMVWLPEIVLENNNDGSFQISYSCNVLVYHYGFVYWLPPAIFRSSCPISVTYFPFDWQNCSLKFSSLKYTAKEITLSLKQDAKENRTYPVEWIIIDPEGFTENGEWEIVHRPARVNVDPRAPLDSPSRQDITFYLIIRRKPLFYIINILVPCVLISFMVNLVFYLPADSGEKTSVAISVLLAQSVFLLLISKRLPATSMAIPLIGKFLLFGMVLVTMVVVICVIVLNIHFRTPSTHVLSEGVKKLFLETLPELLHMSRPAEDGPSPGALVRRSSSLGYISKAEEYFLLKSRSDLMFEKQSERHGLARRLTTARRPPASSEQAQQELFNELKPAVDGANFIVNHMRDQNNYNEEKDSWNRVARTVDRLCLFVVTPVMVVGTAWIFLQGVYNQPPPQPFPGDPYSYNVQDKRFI
Chain of human muscle nicotinic receptors (P11230 24-501 partner): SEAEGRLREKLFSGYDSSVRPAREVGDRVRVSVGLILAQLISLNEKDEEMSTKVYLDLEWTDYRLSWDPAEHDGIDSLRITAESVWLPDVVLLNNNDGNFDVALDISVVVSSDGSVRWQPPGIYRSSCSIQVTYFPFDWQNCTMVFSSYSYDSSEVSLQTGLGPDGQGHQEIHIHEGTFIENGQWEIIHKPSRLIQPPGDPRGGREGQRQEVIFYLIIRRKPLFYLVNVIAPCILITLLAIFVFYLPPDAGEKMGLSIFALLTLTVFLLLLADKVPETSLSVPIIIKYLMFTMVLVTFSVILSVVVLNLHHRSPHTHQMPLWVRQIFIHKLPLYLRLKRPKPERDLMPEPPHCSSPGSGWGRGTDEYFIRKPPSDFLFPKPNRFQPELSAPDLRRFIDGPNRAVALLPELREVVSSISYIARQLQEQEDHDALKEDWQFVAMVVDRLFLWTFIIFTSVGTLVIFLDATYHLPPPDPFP
Chain of human muscle nicotinic receptors (P07510 23-517): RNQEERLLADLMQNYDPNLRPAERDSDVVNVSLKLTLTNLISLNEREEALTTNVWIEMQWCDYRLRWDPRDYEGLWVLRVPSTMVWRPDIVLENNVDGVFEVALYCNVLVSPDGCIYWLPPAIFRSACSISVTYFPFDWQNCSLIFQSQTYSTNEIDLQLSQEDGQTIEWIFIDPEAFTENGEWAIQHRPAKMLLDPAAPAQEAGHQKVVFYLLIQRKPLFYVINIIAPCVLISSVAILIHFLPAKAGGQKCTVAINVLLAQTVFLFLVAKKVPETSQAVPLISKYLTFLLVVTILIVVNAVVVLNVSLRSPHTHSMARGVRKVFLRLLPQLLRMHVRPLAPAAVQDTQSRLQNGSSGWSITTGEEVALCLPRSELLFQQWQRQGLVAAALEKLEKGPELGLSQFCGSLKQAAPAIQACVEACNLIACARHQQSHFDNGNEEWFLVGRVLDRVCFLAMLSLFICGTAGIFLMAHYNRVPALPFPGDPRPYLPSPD

SMILES: c1cncc(C2CC3CCN2CC3)c1 (racemic) [RJR-2429, (+/−)-2-(-3-pyridinyl)-1-azabicyclo [2.2.2]octane]
- action at human muscle nicotinic receptors [1]: selectively activates
- action at nicotinic receptors mediating dopamine release [2]: partial agonist
- action at putative α3β4-containing receptor [3]: selectively activates
- action at nicotinic receptors in preparations of rat thalamus [4]: inhibits

SMILES: CN1[C@@H]2CC[C@H]1C[C@@H](OC(=O)C(CO)c1ccccc1)C2 (some centres unmarked) [atropine]
- effect on accommodation in chicks (accommodation): fails to paralyze accommodation
- development of myopia (development of myopia): retards the development of myopia; also recorded: blocks myopia in the chick

SMILES: CN1CCCC1c1cccnc1 (centres unmarked) [nicotine]
- effect on accommodation in chicks (accommodation): induce accommodation
- myopic refractive shift compared to non-treated eyes (chick eye refraction; daily subconjunctival injections, not seen for subconjunctival saline): 0.75 diopters
- myopic shift in refraction compared to contralateral non-injected eyes (chick eye refraction; twice daily intravitreal injections for two weeks, intravitreal saline had the same effect): ~2 diopter

SMILES: CC(=O)O[C@H]1C[C@@H]2CC[C@@H]3[C@H](CC[C@@]4(C)[C@H]3C[C@H]([N+]3(C)CCCCC3)[C@@H]4OC(C)=O)[C@@]2(C)C[C@@H]1N1CCCCC1 [vecuronium bromide]
- effect on accommodation in chicks (accommodation): paralyzed accommodation
- ocular elongation following spectacle-induced hyperopic defocus [5]: failed to influence
